This is an account of results in ChEMBL document CHEMBL6109094, “Anti-inflammatory agents design via the fragment hybrid strategy in the discovery of compound c1 for treating ALI and UC” (Eur J Med Chem, 2025).

Assay [1] relates to RAW264.7. Description: Anti-inflammatory activity in mouse RAW264.7 cells assessed as inhibition of LPS-induced IL-6 level at 10 uM preincubated for 30 mins followed by LPS addition measured after 24 hrs by ELISA relative to control. Particulars: time 24.5 hrs. Format: functional. (In general: ELISA stands for enzyme-linked immunosorbent assay.)
For assay [2], the target named is T1, Tyrosine-protein kinase JAK3 (Homo sapiens, UniProt P52333).
T1 sequence (P52333 whole entry): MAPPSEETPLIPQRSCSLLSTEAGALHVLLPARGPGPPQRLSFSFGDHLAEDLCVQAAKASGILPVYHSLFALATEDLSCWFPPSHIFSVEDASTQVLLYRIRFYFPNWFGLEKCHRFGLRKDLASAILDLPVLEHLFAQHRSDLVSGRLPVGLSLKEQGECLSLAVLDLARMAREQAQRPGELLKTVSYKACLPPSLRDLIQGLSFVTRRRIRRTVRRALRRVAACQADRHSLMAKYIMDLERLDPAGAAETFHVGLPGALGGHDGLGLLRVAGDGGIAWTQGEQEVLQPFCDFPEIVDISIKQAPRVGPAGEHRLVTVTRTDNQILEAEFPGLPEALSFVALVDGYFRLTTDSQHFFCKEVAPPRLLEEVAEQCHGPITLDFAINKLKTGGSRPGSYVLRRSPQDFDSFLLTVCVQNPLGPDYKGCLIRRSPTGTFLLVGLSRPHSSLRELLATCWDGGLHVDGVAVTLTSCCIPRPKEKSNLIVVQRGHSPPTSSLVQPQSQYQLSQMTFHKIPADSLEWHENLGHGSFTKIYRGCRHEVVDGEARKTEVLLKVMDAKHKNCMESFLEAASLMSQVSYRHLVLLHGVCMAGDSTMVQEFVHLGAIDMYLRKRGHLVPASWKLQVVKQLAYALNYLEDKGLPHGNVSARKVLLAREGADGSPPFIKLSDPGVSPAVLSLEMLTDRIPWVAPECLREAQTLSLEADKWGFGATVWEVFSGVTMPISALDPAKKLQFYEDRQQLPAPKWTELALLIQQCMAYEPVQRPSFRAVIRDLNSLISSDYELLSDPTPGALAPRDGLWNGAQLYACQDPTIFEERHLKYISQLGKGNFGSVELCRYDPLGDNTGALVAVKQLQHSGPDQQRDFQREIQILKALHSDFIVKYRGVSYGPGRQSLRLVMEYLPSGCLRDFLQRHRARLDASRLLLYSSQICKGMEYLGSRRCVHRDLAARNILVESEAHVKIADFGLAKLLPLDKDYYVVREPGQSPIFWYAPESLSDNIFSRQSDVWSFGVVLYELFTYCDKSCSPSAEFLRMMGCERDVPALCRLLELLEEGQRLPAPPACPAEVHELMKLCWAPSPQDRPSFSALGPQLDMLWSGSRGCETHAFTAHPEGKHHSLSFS
As to the kind of experiment: Inhibition of JAK3 (unknown origin).

The test system of assay [3] is RAW264.7. Description: cells. The following applies: Mus musculus.
Description: Anti-inflammatory activity in mouse RAW264.7 cells assessed as inhibition of LPS-induced IL-6 level preincubated for 30 mins followed by LPS addition measured after 24 hrs by ELISA

Molecules are shown by their SMILES. Active and inactive are the calls of the source. The rule behind the calls is not given here.

A word on the inhibition: it is the relative decrease from the control value, in per cent. Take `COc1cc2ncnc(O[C@H]3CC[C@@H](NCCN4CCN(C(C)=O)CC4)CC3)c2cc1O`: the inhibition at 10 µM with RAW264.7 [1] was 66.1%.

With `COc1cc2ncnc(O[C@H]3CC[C@@H](NC(=O)CN4CCN(C(=O)OC(C)(C)C)CC4)CC3)c2cc1O`, the inhibition at 10 µM in the assay with RAW264.7 [1] turned out to be 11.8%.

On to `COc1cc2ncnc(O[C@H]3CC[C@@H](NCCCN4CCN(C)CC4)CC3)c2cc1O`, for which the inhibition at 10 µM in the assay with RAW264.7 [1] is 4.51%.

In the case of `Clc1ccc2c(O[C@H]3CC[C@@H](NCCN4CCNCC4)CC3)ncnc2c1`, the inhibition at 10 µM in the assay with RAW264.7 [1] came out at 58.9%.

For the compound `COc1cc2ncnc(O[C@H]3CC[C@@H](NCC4CCCNC4)CC3)c2cc1O` (some centres not stated), the inhibition entry in the assay with RAW264.7 [1] is “inactive”.

For `COc1cc2ncnc(O[C@H]3CC[C@@H](NC(=O)CCN4CCN(C(=O)OC(C)(C)C)CC4)CC3)c2cc1O`, the inhibition at 10 µM in the assay on RAW264.7 [1] was found to be 17.5%.

Turning to `COc1cc2ncnc(O[C@H]3CC[C@@H](NCCN4CCNCC4)CC3)c2cc1OCc1ccccc1`, the inhibition at 10 µM in the assay with RAW264.7 [1] turned out to be 62.7%.

Regarding `COc1cc2c(O[C@H]3CC[C@@H](NCCN4CCN(C(=O)OC(C)(C)C)CC4)CC3)ncnc2cc1O`, in the assay on RAW264.7 [1], the inhibition at 10 µM stood at 53.6%.

The IC50 is the midpoint of a concentration-inhibition curve. A higher IC50 goes with lower potency. Compound `COc1cc2ncnc(Nc3cc(Br)c(O)c(Br)c3)c2cc1OC` had an IC50 in assay [2] of 2.5 µM.

On to `COc1cc2c(O[C@H]3CC[C@@H](N)CC3)ncnc2cc1OCc1ccccc1Br`, for which the inhibition at 10 µM in the assay on RAW264.7 [1] was found to be 33.2%.

For `COc1cc2ncnc(O[C@H]3CC[C@@H](NCC4CCCN(C(=O)OC(C)(C)C)C4)CC3)c2cc1O` (some centres not stated), in the assay with RAW264.7 [1], the inhibition at 10 µM worked out at 68.7%.

As to `COc1cc2ncnc(O[C@H]3CC[C@@H](NCCN4CCNCC4)CC3)c2cc1OC`, in the assay on RAW264.7 [1], the inhibition result was “inactive”.

On to `COc1cc2c(O[C@H]3CC[C@@H](NCCN4CCNCC4)CC3)ncnc2cc1OCc1ccccc1`, for which, in the assay with RAW264.7 [3], the IC50 was found to be 3.55 µM. In addition, the inhibition at 10 µM with RAW264.7 [1] was determined as 74.2%.

On to `CC(C)(C)OC(=O)N1CCN(CCN[C@H]2CC[C@@H](Oc3ncnc4cc(Cl)ccc34)CC2)CC1`, for which the inhibition at 10 µM with RAW264.7 [1] was 68.7%.

Turning to `COc1cc2c(O[C@H]3CC[C@@H](N)CC3)ncnc2cc1OCc1cccc([N+](=O)[O-])c1`, the inhibition at 10 µM in the assay on RAW264.7 [1] amounted to 75.2%.

Turning to `COc1cc2c(O[C@H]3CC[C@@H](N)CC3)ncnc2cc1OCc1ccccc1[N+](=O)[O-]`, in the assay with RAW264.7 [1], the inhibition at 10 µM is 30.6%.

In the assay with RAW264.7 [3], `COc1cc2c(O[C@H]3CC[C@@H](N)CC3)ncnc2cc1OCc1ccc(C)cc1` showed an IC50 of 1.59 µM. In addition, in the assay with RAW264.7 [1], the inhibition at 10 µM stood at 87.2%.

In the case of `COc1cc2ncnc(O[C@H]3CC[C@@H](NC(=O)CCN4CCNCC4)CC3)c2cc1O`, the inhibition at 10 µM with RAW264.7 [1] came out at 9.85%.

Turning to `COc1cc2ncnc(O[C@H]3CC[C@@H](NCCN4CCN(C(=O)OC(C)(C)C)CC4)CC3)c2cc1O`, the inhibition at 10 µM with RAW264.7 [1] was determined as 59.4%.

With `COc1cc2ncnc(O[C@H]3CC[C@@H](NCCN4CCN(C(=O)OC(C)(C)C)CC4)CC3)c2cc1OC`, the inhibition at 10 µM in the assay with RAW264.7 [1] was 10.8%.

For `COc1cc2c(O[C@H]3CC[C@@H](N)CC3)ncnc2cc1OCc1ccc(Br)cc1`, the inhibition result in the assay with RAW264.7 [1] was “inactive”.

Consider `COc1cc2ncnc(O[C@H]3CC[C@@H](NC(=O)CN4CCNCC4)CC3)c2cc1O`, for which the inhibition at 10 µM in the assay on RAW264.7 [1] came to 37.1%.

In turn, `COc1cc2c(O[C@H]3CC[C@@H](N)CC3)ncnc2cc1OCc1cccc(C)c1` displayed an IC50 in the assay on RAW264.7 [3] of 0.6 µM. In addition, the inhibition at 10 µM with RAW264.7 [1] was determined as 89.5%.

On to `COc1cc2ncnc(O[C@H]3CC[C@@H](NCCN4CCNCC4)CC3)c2cc1O`, for which, in the assay on RAW264.7 [1], the inhibition at 10 µM was 46.5%.

Turning to `COc1cc2c(O[C@H]3CC[C@@H](NCCN4CCN(C(=O)OC(C)(C)C)CC4)CC3)ncnc2cc1OCc1ccccc1`, in the assay on RAW264.7 [1], the inhibition result was “inactive”.

`COc1cc2ncnc(O[C@H]3CC[C@@H](NCCN4CCN(C(=O)OC(C)(C)C)CC4)CC3)c2cc1OCc1ccccc1`: in the assay on RAW264.7 [1], the inhibition at 10 µM came out at 58.1%.

With `COc1cc2c(O[C@H]3CC[C@@H](NCCN4CCNCC4)CC3)ncnc2cc1O`, the inhibition at 10 µM in the assay with RAW264.7 [1] was determined as 58.4%.

For the compound `COc1cc2c(O[C@H]3CC[C@@H](N)CC3)ncnc2cc1OCc1ccc([N+](=O)[O-])cc1`, in the assay on RAW264.7 [3], it took 0.65 µM to reach half-maximal inhibition (IC50). Also, the inhibition at 10 µM in the assay on RAW264.7 [1] amounted to 86.6%.
